Assay results as given in patent US20100209345A1, “Fluorinated Ligands for Targeting Peripheral Benzodiazepine Receptors” (Australian Nuclear Science & Technology Organisation, priority 2006, published 2010).

Key:
[1] = Biodistribution of 18F-labelled tracers in rats; type: in vivo
Method: [^18F]Fluoride, in the form of H^18F, was produced by the ^18O(p,n)^18F nuclear reaction by bombardment of ^18O-enriched water target. The aqueous [^18F]fluoride solution was added to a 2.5-mL wheaton vial containing dry acetonitrile (1 mL), Kryptofix 2.2.2 (5 mg, 13.3 μmol) and potassium carbonate (2 mg, 14.5 μmol). The solvent was evaporated under a stream of nitrogen at 90° C. with a reducing vacuum. This azeotropic drying was repeated twice by further addition of acetonitrile (2×1 mL). The tosylate precursor 2-(2-(4-(2-tosylethoxy)phenyl)-6-chloroimidazo[1,2-a]pyridin-3-yl)-N,N-diethylacetamide (2 mg, 3.6 μmol) was dissolved in acetonitrile (1 ml) and added to the dried K222.K2CO3.KF complex. Stirring and heating at 90° C. continued for 10 to 15 mins before the reaction mixture was diluted with mobile phase and purified by reverse phase HPLC on an Alltech Alltima, C18, 10μ, 250×22 mm column eluting at 10 mLs/min with 45% acetonitrile, 55% water with 0.1% TFA.
(§1) The biodistribution of PBR132* was undertaken in SD rats and analysis up to 4 h p.i. in the brain and peripheral tissues was performed. The specificity and selectivity of the tracer were assessed by pre-treatment with PBR and Central benzodiazepine receptor (CBR) specific ligands (1 mg/kg) 5 min prior to injection of PBR132*.
(§2) The biodistribution of PBR 147* was performed in SD rats and brain and peripheral tissues were analysised at 15, 30 min, 1, and 4 h p.i. The specificity and selectivity of the tracer was assessed by pre-treatment of the animals with the PBR ligands PK11195 and Ro 5-4864 and with Flumazenil for CBR at 1 mg/kg 5 min prior to injection of PBR 147*
(§3) The biodistribution of PBR102* and PBR111* were performed in SD rats and brain and peripheral tissues analysed at 15, 30 min, 1, and 4 h p.i. The specificity and selectivity of the tracers were assessed by pre-treatment with the PBR ligands PK11195 and Ro 5-4864 and with Flumazenil for CBR at 1 mg/kg 5 min prior to injection of the corresponding tracers.
(§4) The specificity and selectivity of the tracers were assessed by pre-treatment with the PBR ligands PK11195 and Ro 5-4864 and with Flumazenil for CBR at 1 mg/kg 5 min prior to injection of the corresponding tracers.

[2] = molecular target: T1, peripheral benzodiazepine receptors (Rattus norvegicus, UniProt P16257); test: In vivo blocking / competition of tracer uptake by pre-treatment with PBR and CBR ligands; conditions: rats
T1 construct: high uptake in the tissues which have known PBR sites; from tissue; host or cells: organs of living SD rats (brain and peripheral tissues), in vivo
Method: The criteria for significance were **p<0.01 (highly significant) and *p<0.05 (significant). No stars implies not statistical difference from normals or controls.
as §1, §2, §3, §4

[3] = SD rats, 15 min, decay correction not stated
[4] = SD rats, 4 hours, decay correction not stated
[5] = rats, 15 min, corrected for decay of 18F
[6] = rats, 30 min, corrected for decay of 18F
[7] = rats, 60 min, corrected for decay of 18F
[8] = rats, 4 hours, corrected for decay of 18F

CCN(CC)C(=O)Cc1c(-c2ccc(OCCCF)cc2)nn2c(C)cc(C)nc12 [PBR146*]
Biodistribution: Blood [1, 3]: 0.4 % ID/g
Biodistribution: Bone [1, 3]: 1.0 % ID/g
Biodistribution: Kidney [1, 3]: 5.5 % ID/g
Biodistribution: Olfactory bulbs [1, 3]: 0.41 % ID/g
Biodistribution: Adrenals ([1]; SD rats, 30 min, decay correction not stated): 7.9 % ID/g
Biodistribution: Adrenals [1, 4]: 12.2 % ID/g
Biodistribution: Blood [1, 4]: 0.1 % ID/g
Biodistribution: Bone [1, 4]: 5.0 % ID/g
Biodistribution: Kidney [1, 4]: 3.2 % ID/g
Biodistribution: Olfactory bulbs [1, 4]: 0.31 % ID/g
Biodistribution: Adrenals [1, 5]: 8.05 ± 0.66 % ID/g
Biodistribution: Bladder [1, 5]: 0.63 ± 0.14 % ID/g
Biodistribution: Blood [1, 5]: 0.38 ± 0.08 % ID/g
Biodistribution: Bone [1, 5]: 1.06 ± 0.17 % ID/g
Biodistribution: Brain [1, 5]: 0.27 ± 0.03 % ID/g
Biodistribution: Heart [1, 5]: 8.99 ± 0.69 % ID/g
Biodistribution: Kidney [1, 5]: 5.53 ± 1.20 % ID/g
Biodistribution: Liver [1, 5]: 1.08 ± 0.05 % ID/g
Biodistribution: Lungs [1, 5]: 20.42 ± 4.32 % ID/g
Biodistribution: Muscle [1, 5]: 1.10 ± 0.15 % ID/g
Biodistribution: Olfactory bulbs [1, 5]: 0.41 ± 0.10 % ID/g
Biodistribution: Pancreas [1, 5]: 2.20 ± 0.68 % ID/g
Biodistribution: Skin [1, 5]: 0.53 ± 0.11 % ID/g
Biodistribution: Spleen [1, 5]: 5.49 ± 0.90 % ID/g
Biodistribution: Stomach [1, 5]: 0.69 ± 0.12 % ID/g
Biodistribution: Testes [1, 5]: 0.269 ± 0.022 % ID/g
Biodistribution: Thymus [1, 5]: 0.80 ± 0.07 % ID/g
Biodistribution: Thyroid [1, 5]: 7.71 ± 2.92 % ID/g
Biodistribution: Adrenals [1, 6]: 7.94 ± 1.52 % ID/g
Biodistribution: Bladder [1, 6]: 0.71 ± 0.22 % ID/g
Biodistribution: Blood [1, 6]: 0.26 ± 0.03 % ID/g
Biodistribution: Bone [1, 6]: 1.46 ± 0.27 % ID/g
Biodistribution: Brain [1, 6]: 0.15 ± 0.02 % ID/g
Biodistribution: GIT [1, 6]: 1.25 ± 0.09 % ID/g
Biodistribution: Heart [1, 6]: 9.05 ± 0.51 % ID/g
Biodistribution: Kidney [1, 6]: 4.91 ± 0.21 % ID/g
Biodistribution: Liver [1, 6]: 0.98 ± 0.21 % ID/g
Biodistribution: Lungs [1, 6]: 12.36 ± 1.28 % ID/g
Biodistribution: Muscle [1, 6]: 0.82 ± 0.13 % ID/g
Biodistribution: Olfactory bulbs [1, 6]: 0.45 ± 0.07 % ID/g
Biodistribution: Pancreas [1, 6]: 1.59 ± 0.10 % ID/g
Biodistribution: Skin [1, 6]: 0.55 ± 0.05 % ID/g
Biodistribution: Spleen [1, 6]: 5.53 ± 0.36 % ID/g
Biodistribution: Stomach [1, 6]: 1.03 ± 0.16 % ID/g
Biodistribution: Testes [1, 6]: 0.285 ± 0.024 % ID/g
Biodistribution: Thymus [1, 6]: 0.84 ± 0.11 % ID/g
Biodistribution: Thyroid [1, 6]: 7.69 ± 2.21 % ID/g
Biodistribution: Adrenals [1, 7]: 11.02 ± 1.88 % ID/g
Biodistribution: Bladder [1, 7]: 0.89 ± 0.25 % ID/g
Biodistribution: Blood [1, 7]: 0.18 ± 0.02 % ID/g
Biodistribution: Bone [1, 7]: 2.07 ± 0.27 % ID/g
Biodistribution: Brain [1, 7]: 0.12 ± 0.01 % ID/g
Biodistribution: GIT [1, 7]: 1.51 ± 0.21 % ID/g
Biodistribution: Heart [1, 7]: 8.57 ± 1.01 % ID/g
Biodistribution: Kidney [1, 7]: 4.70 ± 0.24 % ID/g
Biodistribution: Liver [1, 7]: 0.69 ± 0.26 % ID/g
Biodistribution: Lungs [1, 7]: 7.12 ± 0.95 % ID/g
Biodistribution: Muscle [1, 7]: 0.67 ± 0.04 % ID/g
Biodistribution: Olfactory bulbs [1, 7]: 0.25 ± 0.06 % ID/g
Biodistribution: Pancreas [1, 7]: 1.41 ± 0.22 % ID/g
Biodistribution: Skin [1, 7]: 0.67 ± 0.06 % ID/g
Biodistribution: Spleen [1, 7]: 5.14 ± 0.38 % ID/g
Biodistribution: Stomach [1, 7]: 1.27 ± 0.45 % ID/g
Biodistribution: Testes [1, 7]: 0.319 ± 0.028 % ID/g
Biodistribution: Thymus [1, 7]: 0.96 ± 0.17 % ID/g
Biodistribution: Thyroid [1, 7]: 13.37 ± 0.46 % ID/g
Biodistribution: Adrenals [1, 8]: 12.21 ± 1.56 % ID/g
Biodistribution: Bladder [1, 8]: 1.26 ± 0.16 % ID/g
Biodistribution: Blood [1, 8]: 0.10 ± 0.01 % ID/g
Biodistribution: Bone [1, 8]: 4.12 ± 0.23 % ID/g
Biodistribution: Brain [1, 8]: 0.08 ± 0.01 % ID/g
Biodistribution: GIT [1, 8]: 1.54 ± 0.11 % ID/g
Biodistribution: Heart [1, 8]: 5.76 ± 0.92 % ID/g
Biodistribution: Kidney [1, 8]: 3.23 ± 0.26 % ID/g
Biodistribution: Liver [1, 8]: 0.38 ± 0.09 % ID/g
Biodistribution: Lungs [1, 8]: 3.25 ± 0.21 % ID/g
Biodistribution: Muscle [1, 8]: 0.31 ± 0.06 % ID/g
Biodistribution: Olfactory bulbs [1, 8]: 0.31 ± 0.08 % ID/g
Biodistribution: Pancreas [1, 8]: 0.77 ± 0.16 % ID/g
Biodistribution: Skin [1, 8]: 0.71 ± 0.07 % ID/g
Biodistribution: Spleen [1, 8]: 3.61 ± 0.19 % ID/g
Biodistribution: Stomach [1, 8]: 0.34 ± 0.04 % ID/g
Biodistribution: Testes [1, 8]: 0.426 ± 0.043 % ID/g
Biodistribution: Thymus [1, 8]: 1.35 ± 0.15 % ID/g
Biodistribution: Thyroid [1, 8]: 10.68 ± 1.44 % ID/g

CN(C(=O)Cc1c(-c2ccc(OCCC[18F])cc2)nc2c(Cl)cc(Cl)cn12)c1ccccc1 [PBR147*, 2-(2-(4-(3-fluoropropoxy)phenyl)-6,8-dichloroimidazo[1,2-a]pyridin-3-yl)-N-methyl-N-phenylacetamide]
Tracer uptake after pre-treatment with PK 11195 ([2]; PK 11195 1 mg/kg 5 min prior to tracer, PBR-expressing tissues (brain/peripheral organs, adrenals apart)): blocking effect
Tracer uptake after pre-treatment with Ro 5-4864 ([2]; Ro 5-4864 1 mg/kg 5 min prior to tracer, PBR-expressing tissues (brain/peripheral organs, adrenals apart)): blocking effect
Tracer uptake after pre-treatment with flumazenil (central benzodiazepine ligand) ([2]; flumazenil 1 mg/kg 5 min prior to tracer, brain or peripheral organs): does not reduce
Tracer uptake after pre-treatment with the non-radioactive analogue ([2]; non-radioactive analogue 1 mg/kg, PBR-expressing tissues): blocking effect
